The values below come from patent publication US10143202B2, “Synergistic blends of antimicrobials useful for controlling microorganisms in industrial processes” (Solenis Technologies, L.P., priority 2014, dated 2018).

For data set [1], the system named is Lactobacillus plantarum. The data set is described as follows: Minimal Inhibitory Concentration (MIC), two-fold dilution series in 96 well microplate, antimicrobial used alone. The format is cell-based. Conditions: pH 5, 18-24 hours, complete inhibition of growth.
Procedure: This is the lowest concentration of a substance or substances which can achieve complete inhibition of growth.
In order to determine the Minimal Inhibitory Concentration, a two-fold dilution series of the antimicrobial is constructed with the dilutions being made in growth media. The dilutions are made in a 96 well microplate such that each well has a final volume of 280 μl of media and antimicrobial. […] After the dilution series is constructed the wells receive an inoculum of microbe suspended in growth media such that the final concentration of microbes in the well is ˜5×10^5 cfu/ml. In these examples the test microbe used is Lactobacillus plantarum. The cultures are incubated at an appropriate temperature for 18-24 hours, and the wells scored as positive or negative for growth based on a visual examination for turbid wells.
The subject of data set [2] is fermentation. Conditions: cited from earlier work.
For data set [3], the system named is Weisella confusa. Conditions: cited from earlier work.

Converted amounts (≈) assume the structure as drawn.

In the case of `O=C(O)CC(O)(CC(=O)O)C(=O)O` [Citric Acid, citric acid], the MIC in data set [1] (Lactiplantibacillus plantarum, read-out: Citric Acid MIC (QC), Used Alone) stood at 6250 µg/mL (≈ 32.5 mM). Moreover, the “Citric Acid MIC (QC), Used Alone” value in data set [1] is listed as 6250 ppm.

Turning to `[O][Cl+][O-]` [ClO2, chlorine dioxide], the “ClO2 MIC (QA), Used Alone” value in data set [1] turned out to be 54 ppm.

For the compound Virginiamycin, in data set [2], the “Concentration that will suppress fermentation” value is listed as “over 2 mg/L”. In addition, the “Concentration required to inhibit growth of Weisella confusa” value in data set [3] was “over 25 mg/L”.
